Measurements taken from PMC5937995 (Bioorganic & medicinal chemistry, 2018).
Values belong to the molecule of their own block, whether it stands above or below them. Residues, ends and D or L forms follow the SMILES beside them.

Assays:
[1] = system: human platelets; settings: cited from earlier work; for IC50: read-out: potency in P-selectin assay, human platelets
[2] = target: T1, PAR1 (Homo sapiens, UniProt P25116); experiment: PAR1
T1 sequence (P25116 22-425): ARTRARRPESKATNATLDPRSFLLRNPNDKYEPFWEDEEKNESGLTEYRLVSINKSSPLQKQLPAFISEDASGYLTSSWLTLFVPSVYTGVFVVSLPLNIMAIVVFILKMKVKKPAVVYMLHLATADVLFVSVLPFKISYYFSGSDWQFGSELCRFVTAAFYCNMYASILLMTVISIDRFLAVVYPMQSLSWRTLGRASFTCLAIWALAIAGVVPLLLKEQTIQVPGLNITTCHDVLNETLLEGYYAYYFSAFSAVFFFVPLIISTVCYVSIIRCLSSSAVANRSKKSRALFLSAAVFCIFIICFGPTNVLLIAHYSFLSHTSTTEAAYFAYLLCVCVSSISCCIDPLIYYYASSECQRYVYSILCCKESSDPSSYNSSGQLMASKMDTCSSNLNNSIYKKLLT

[3] = cited from earlier work
[4] = system: cardiac infarct size; settings: murine myocardial ischemia-reperfusion injury; cited from earlier work
[5] = system: PAR1; settings: platelet membranes; cited from earlier work
[6] = Aqueous solubility; type: physicochemical; settings: turbid suspensions observed at high concentrations
[7] = system: PAR1; settings: cited from earlier work
[8] = 5 μM TFLLRN-NH2, EA.hy926 cells

Structure (SMILES): CC(C)CC(=O)Nc1cccc(NC(=O)c2ccccc2Br)c1 [CJD-125]
- potency relative to ML161 in platelet P-selectin assay [1]: equipotency
- activity in PAR1 iCa2+ assay (in words) [2, 8]: less potent than ML161 and did not give a good concentration-response
- plasma stability relative to ML161 [3]: improved plasma stability

Structure (SMILES): CCCC(=O)Nc1cccc(NC(=O)c2ccccc2N=[N+]=[N-])c1 [DG-5, 2-Azido-N-(3-butyramidophenyl)benzamide]
- activity in PAR1 iCa2+ assay (in words) [2, 8]: only modest activity

Structure (SMILES): CCCC(=O)Nc1cccc(NC(=O)c2ccccc2Br)c1 [ML161]
- mode of inhibition of SFLLRN-NH2 ([1]; platelet P-selectin assay): non-competitive inhibitor
- IC50 [1]: 260 nM
- cardiac infarct size [4]: significantly decreased
- inhibition of [3H]TRAP binding [5]: does not significantly inhibit binding
- aqueous solubility [6]: low aqueous solubility

Structure (SMILES): CCCCNc1cccc(NC(=O)c2ccccc2Br)c1 [RR-90]
- IC50 [1]: 340 nM

Structure (SMILES): NCC[C@H](NC(=O)[C@H](Cc1ccc(F)c(F)c1)NC(=O)Nc1ccc2c(CN3CCCC3)cn(Cc3c(Cl)cccc3Cl)c2c1)C(=O)NCc1ccccc1 [RWJ-56110]
- mode of inhibition of radiolabeled PAR1 activating peptide binding [7]: competitive inhibitor

Further lines, results first:

- fold less potent than RWJ-58259 [2, 8]: 15 fold
Structure (SMILES): C#CCCC(=O)NCC[C@H](NC(=O)[C@H](Cc1ccc(F)c(F)c1)NC(=O)Nc1ccc2c(CN3CCCC3)nn(Cc3c(Cl)cccc3Cl)c2c1)C(=O)NCc1ccccc1 [DG-207, N-((S)-4-(Benzylamino)-3-((S)-2-(3-(1-(2,6-dichlorobenzyl)-3-(pyrrolidin-1-ylmethyl)-1H-indazol-6-yl)ureido)-3-(3,4-difluorophenyl)propanamido)-4-oxobutyl)pent-4-ynamide]

- activity in PAR1 iCa2+ assay (in words) [2, 8]: poorly active
Structure (SMILES): CCCCC(=O)Nc1cccc(NC(=O)c2ccccc2Br)c1 [EMG-23, 2-Bromo-N-(3-pentanamidophenyl)benzamide]

- activity in PAR1 iCa2+ assay (in words) [2, 8]: only modest inhibition of PAR1
Structure (SMILES): C#CCCC(=O)Nc1cccc(NC(=O)c2ccccc2Br)c1 [RR-10, 2-Bromo-N-(3-(pent-4-ynamido)phenyl)benzamide]

- EC50 [2]: 4800 nM
Structure (SMILES): CC(C)C[C@H](NC(=O)[C@H](CC(C)C)NC(=O)[C@H](Cc1ccccc1)NC(=O)[C@@H](N)[C@@H](C)O)C(=O)N[C@@H](CCCNC(=N)N)C(=O)N[C@@H](CC(N)=O)C(N)=O [TFLLRN-NH2, reference compound] (H-TFLLRN-NH2)

- IC50 [2]: 32 nM
- % Inhibition ([2]; in presence of 5 μM TFLLRN-NH2, EA.hy926 cells): 95%
- aqueous solubility [6]: low aqueous solubility
Structure (SMILES): CCOC(=O)N[C@@H]1CC[C@@H]2[C@@H](C1)C[C@H]1C(=O)O[C@H](C)[C@H]1[C@H]2/C=C/c1ccc(-c2cccc(F)c2)cn1 [Vorapaxar, reference compound]
